In patent publication US20210063414A1, “METHODS FOR PREVENTING AND/OR TREATING BONE LOSS CONDITIONS BY MODULATING IRISIN” (Dana-Farber Cancer Institute, Inc., priority 2018, published 2021):
“Also recorded” adds a separate entry of the source. Structures can show the parent of a compound that is named as a salt.

How the values were obtained:
MLO-Y4 cells = assay: Integrin-like signaling (pFAK, pZyxin, pAKT, pCREB) in MLO-Y4 cells, immunoblot; format: cell-based; details: for effect of integrin inhibitor on irisin-induced signaling (phosphorylation of FAK, Zyxin, CREB): MLO-Y4, inhibitor pre-treatment 10 minutes before irisin
Method: Integrin heterodimer binds to its ligand. The interaction results in phosphorylation of FAK and Zyxin, followed by phosphorylation of AKT (at T308) and CREB. PM is plasma membrane. FIG. 2C and FIG. 2D show the immunoblots. MLO-Y4 cells were seeded and incubated until 60% cell density. The cells were incubated with serum free medium (FreeStyle™ 293 medium) for 4 hours and were treated for indicated time with 10 nM norepinephrine or irisin (FIG. 2C) or indicated concentrations of irisin for 10 minutes (FIG. 2D). Cells were lysed to detect the indicated protein level using immunoblot analysis.
(§1) Certain materials and methods were used to generate the results described herein. For example, the data shown in FIG. 1A resulted from MLO-Y4 (an osteocyte-like cell line) cells treated with the indicated concentration of irisin and hydrogen peroxide for 4 hours. Cells were stained with Hoechst 33342 (ThermoFisher Scientific, catalog number H3570) and Eth-D1 (ThermoFisher Scientific, catalog number E1169) and analyzed to determine the percentage of cell death using ImageJ. The data shown in FIG. 2D resulted from MLO-Y4 incubated in serum free medium (FreeStyle™ 293 expression medium, ThermoFisher Scientific, catalog number 12338018) for 4 hours followed by treatment of indicated concentrations of irisin for 10 minutes. Cells were lysed to detect the indicated protein level using immunoblot analysis (Cell Signaling Technology, catalog numbers 3283S, 3285S, 8467S, 3553S, 9198S, and 9104S; Abcam, catalog number ab49900-100ul). The data shown in FIG. 3 resulted from 3T3-F442A cells incubated in serum free medium for 4 hours followed by treatment of indicated concentrations of irisin for 10 minutes. Cells were lysed by RIPA buffer to detect the indicated protein level using immunoblot analysis. The data shown in FIG. 4 were generated from 100 nM flag-tagged irisin (Enzo life sciences, catalog number ADI-908-307-3010) incubated with 5 nM of the indicated 6 his-tag integrins (R & D Systems Inc., catalog numbers 7064-AB-025, 5668-A4-050, 5438-A9-050, 6357-AB-050, and 6579-AV-025) in the presence of RGDS peptide (R & D Systems Inc., catalog number 3498/10) or its control peptide (Enzo Life Sciences, catalog Number BML-P701-0005) followed by immunoprecipitation using 6 his-tag beads (ThermoFisher Scientific, catalog number R901-01). Co-precipitated irisin was analyzed by immunoblot analysis against flag tag (Sigma Aldrich, catalog number A8592). The data shown in FIGS. 5A and 5B were generated from MLO-Y4 cells treated and analyzed as in the experiments used to generate the data shown in FIG. 2D, except that pre-treatment of 100 nM RGDS (FIG. 5A) or echistatin (R & D Systems Inc., catalog number 3202/100U) (FIG. 5B) for 10 minutes was performed before irisin treatment. The data shown in FIGS. 6A and 6B were generated from MLO-Y4 cells incubated in serum free medium for 3 hours followed by treatment of indicated time of 10 nM irisin for 16 hours. RNAs were extracted from the cells and the sclerostin mRNA level was analyzed by qPCR (FIG. 6A) or treated and analyzed as in (FIG. 6A), except that pre-treatment of 10 μM RGDS, RGDyK (Selleck, catalog number S7844), or echistatin was performed for 10 minutes before irisin treatment. The data shown in FIGS. 7A and 7B were generated from 8 week-old mice injected with the indicated dose of irisin for 6 days. Tibias were collected and treated with collagenase to obtain mRNA from the osteocyte-enriched bones. Sclerostin mRNA level was analyzed by qPCR (FIG. 7A). Serum was collected to analyze the sclerostin protein level using ELISA kit (R&D Systems Inc., catalog number MSST00) (FIG. 7B). The data shown in FIG. 8 were generated from 8 week-old mice injected with the indicated dose of irisin for 6 days. Epididymal fats were collected, RNAs were extracted from the tissues, and mRNA levels of the indicated genes were analyzed by qPCR. […]

sclerostin = assay: Irisin injection in mice: sclerostin mRNA in osteocyte-enriched bones and plasma sclerostin protein (ELISA); format: in vivo; details: co-injection of 1 mg/kg inhibitor with irisin
Method: 8 weeks old mice were injected daily with indicated dose of irisin for 6 days. […] were collected and treated with collagenase to yield osteocyte-enriched bones. Sclerostin mRNA level from osteocyte-enriched tibia was analyzed by qPCR (FIG. 7A). Cyclophilin was used as a house-keeping gene. Plasma was collected to analyze the circulating sclerostin protein level by ELISA assay (FIG. 7B). Data are represented as mean±SEM. For FIG. 7A and FIG. 7B, n=5 animals/group. * indicates p<0.05, and *** indicates p<0.001.
Certain materials and methods were used to generate the results described herein. For example, the data shown in FIG. 1A resulted from MLO-Y4 (an osteocyte-like cell line) cells treated with the indicated concentration of irisin and hydrogen peroxide for 4 hours. Cells were stained with Hoechst 33342 (ThermoFisher Scientific, catalog number H3570) and Eth-D1 (ThermoFisher Scientific, catalog number E1169) and analyzed to determine the percentage of cell death using ImageJ. […] Co-precipitated irisin was analyzed by immunoblot analysis against flag tag (Sigma Aldrich, catalog number A8592). The data shown in FIGS. 5A and 5B were generated from MLO-Y4 cells treated and analyzed as in the experiments used to generate the data shown in FIG. 2D, except that pre-treatment of 100 nM RGDS (FIG. 5A) or echistatin (R & D Systems Inc., catalog number 3202/100U) (FIG. 5B) for 10 minutes was performed before irisin treatment. […] RNAs were extracted from the cells and the sclerostin mRNA level was analyzed by qPCR (FIG. 6A) or treated and analyzed as in (FIG. 6A), except that pre-treatment of 10 μM RGDS, RGDyK (Selleck, catalog number S7844), or echistatin was performed for 10 minutes before irisin treatment. […] Sclerostin mRNA level was analyzed by qPCR (FIG. 7A). […] Epididymal fats were collected, RNAs were extracted from the tissues, and mRNA levels of the indicated genes were analyzed by qPCR. […]

[1] = test system: sclerostin mRNA in MLO-Y4 cells; assay: Sclerostin mRNA in MLO-Y4 cells, qRT-PCR; format: cell-based, mouse; details: MLO-Y4, inhibitor pre-treatment 10 minutes, irisin 16 hours
Method: Cells were stained with Hoechst 33342 and Eth-D1, and analyzed to determine the percentage of cell death. *: p<0.05, ***: p<0.001 vs 0.3 mM H2O2 treated condition. […] MLO-Y4 cells were seeded and incubated until 60% cell density. The cells were incubated with Freestyle293 medium for 4 hours and were treated with indicated concentrations of irisin for 16 hours. Sclerostin mRNA level was analyzed by qRT-PCR. Cyclophilin was used as a control house-keeping gene.
MLO-Y4 cells were incubated in serum free medium for 3 hours followed by treatment of indicated concentrations of irisin for indicated time (FIG. 6A), or followed by treatment of 0 or 10 nM irisin in the presence of indicated integrin inhibitors or their control peptide for 16 hours (FIG. 6B). Sclerostin mRNA level was analyzed by qPCR.
as §1, with “The data shown in FIGS. 7A and 7B were generated from 8 week-old mice injected with the indicated dose of irisin for 6 days. Tibias were collected and treated with collagenase to obtain mRNA from the osteocyte-enriched bones.” left out, “7A).” for “7A). Serum was collected to analyze the sclerostin protein level using ELISA kit (R&D Systems Inc., catalog number MSST00) (FIG. 7B). The data shown in FIG. 8 were generated from 8 week-old mice injected with the indicated dose of irisin for 6 days. Epididymal fats were collected, RNAs were extracted from the tissues, and mRNA levels of the indicated genes were analyzed by qPCR.”

Row | Compound | effect of integrin inhibitor on irisin-induced signaling (phosphorylation of FAK, Zyxin, CREB) (MLO-Y4 cells) | effect on irisin-induced gene expression of sclerostin in osteocyte-enriched bones (sclerostin) | phosphorylation of CREB (positive control) (MLO-Y4 cells; MLO-Y4, 10 nM) | effect of integrin inhibitor on irisin-induced signaling (phosphorylation of FAK, Zyxin, CREB) (MLO-Y4 cells; listed as Echistatin) | effect of integrin inhibitor on irisin-induced sclerostin mRNA [1]
1 | CNc1cccc(CCOc2ccc3c(c2)CN(CC(F)(F)F)C(=O)[C@H](CC(=O)O)C3)n1 [SB273005, reference compound] | block irisin-induced signaling | significantly prevented |  |  | 
2 | NC[C@H](O)c1ccc(O)c(O)c1 [norepinephrine, L-(−)-Norephinephrine (+)-bitartrate salt monohyrdate] |  |  | also did this |  | 
3 | echistatin: natural integrin inhibitor isolated from viper venom, affects primarily integrin αV complexes (QCESGPCCRNCKFLKEGTICKRARGDDMDDYCNGKTCDCPRNPHKGPAT) | most irisin signaling in osteocytes was inhibited |  |  | effectively prevented irisin signaling | sensitive; also recorded: prevented sclerostin induction
